# According to ChEMBL document CHEMBL4130416, “Glycine-replaced derivatives of [Pro3,DLeu9]TL, a temporin L analogue: Evaluation of antimicrobial, cytotoxic and hemolytic activities” (Eur J Med Chem, 2017):
# Calls of active or inactive are those of the source. The rule behind the calls is not given here. Where a SMILES comes first, the peptide text is derived from it. [ ]: non-standard residue; d: D form.
# Key:
# Escherichia coli [1] = assay: Antimicrobial activity against Escherichia coli D21 after 18 to 20 hrs by microbroth dilution method; type: functional
# Candida albicans [2] = assay: Antimicrobial activity against Candida albicans ATCC 10231 after 18 to 20 hrs by microbroth dilution method; type: functional
# Priestia megaterium = assay: Antimicrobial activity against Bacillus megaterium Bm11 after 18 to 20 hrs by microbroth dilution method; type: functional
# HaCaT [3] = assay: Cytotoxicity against human HaCaT cells at 6.25 uM after 24 hrs by MTT assay relative to control; type: cell-based
# HaCaT [4] = assay: Cytotoxicity against human HaCaT cells at 25 uM after 24 hrs by MTT assay relative to control; type: cell-based
# Pichia kudriavzevii = assay: Antimicrobial activity against Candida krusei ATCC 6258 after 18 to 20 hrs by microbroth dilution method; type: functional
# Staphylococcus aureus [5] = assay: Antimicrobial activity against Staphylococcus aureus Cowan I after 18 to 20 hrs by microbroth dilution method; type: functional
# HaCaT [6] = assay: Cytotoxicity against human HaCaT cells at 12.5 uM after 24 hrs by MTT assay relative to control; type: cell-based
# Acinetobacter baumannii [7] = assay: Antimicrobial activity against Acinetobacter baumannii ATCC 19606 after 18 to 20 hrs by microbroth dilution method; type: functional; details: ATCC 19606 = CIP 70.34 = JCM 6841
# Pseudomonas syringae = assay: Antimicrobial activity against Pseudomonas syringae pv tabaci NCPPB 1918 after 18 to 20 hrs by microbroth dilution method; type: functional, Pseudomonas amygdali pv. tabaci
# [8] = test system: Staphylococcus epidermidis; assay: Antimicrobial activity against Staphylococcus epidermidis ATCC 12228 after 18 to 20 hrs by microbroth dilution method; type: functional
# Pseudomonas aeruginosa [9] = assay: Antimicrobial activity against Pseudomonas aeruginosa ATCC 27853 after 18 to 20 hrs by microbroth dilution method; type: functional
# HaCaT [10] = assay: Cytotoxicity against human HaCaT cells at 50 uM after 24 hrs by MTT assay relative to control; type: cell-based
# Pseudomonas aeruginosa [11] = assay: Antimicrobial activity against multisensitive Pseudomonas aeruginosa after 18 to 20 hrs by microbroth dilution method; type: functional
# Staphylococcus aureus [12] = assay: Antimicrobial activity against macrolid resistant Staphylococcus aureus after 18 to 20 hrs by microbroth dilution method; type: functional
# Candida albicans [13] = assay: Antimicrobial activity against Candida albicans clinical isolate 1 after 18 to 20 hrs by microbroth dilution method; type: functional
# Escherichia coli [14] = assay: Antimicrobial activity against multisensitive Escherichia coli clinical isolate 1 after 18 to 20 hrs by microbroth dilution method; type: functional
# Staphylococcus aureus [15] = assay: Antimicrobial activity against multisensitive Staphylococcus aureus after 18 to 20 hrs by microbroth dilution method; type: functional
# Candida albicans [16] = assay: Antimicrobial activity against Candida albicans ATCC 10231 assessed as induction of membrane-perturbation at MIC measured every minute for 10 mins by SYTOX green fluorescence dye influx assay; type: functional, organism-based
# Acinetobacter baumannii [17] = assay: Antimicrobial activity against Acinetobacter baumannii ATCC 19606 assessed as induction of membrane-perturbation at MIC measured every minute for 120 mins by SYTOX green fluorescence dye influx assay; type: functional, organism-based; details: ATCC 19606 = CIP 70.34 = JCM 6841
# Escherichia coli [18] = assay: Antimicrobial activity against multisensitive Escherichia coli clinical isolate 2 after 18 to 20 hrs by microbroth dilution method; type: functional
# HaCaT [19] = assay: Cytotoxicity against human HaCaT cells at 1.56 to 6.25 uM after 24 hrs by MTT assay; type: cell-based
# Staphylococcus aureus [20] = assay: Antimicrobial activity against methicillin resistant Staphylococcus aureus clinical isolate 2 after 18 to 20 hrs by microbroth dilution method; type: functional
# Candida albicans [21] = assay: Antimicrobial activity against Candida albicans clinical isolate 2 after 18 to 20 hrs by microbroth dilution method; type: functional
# Klebsiella pneumoniae = assay: Antimicrobial activity against multisensitive Klebsiella pneumoniae after 18 to 20 hrs by microbroth dilution method; type: functional
# [22] = Metabolic stability in 90% human serum assessed as parent compound remaining at […] after 120 mins by RP-UHPLC analysis; type: ADME, cell-free; details: read-out: Stability
# [23] = Hemolytic activity against human erythrocytes at 6.25 uM after 40 mins relative to control; type: ADME, cell-based, Erythrocyte; details: read-out: Activity
# [24] = Hemolytic activity against human erythrocytes at 25 uM after 40 mins relative to control; type: ADME, cell-based, Erythrocyte; details: read-out: Activity
# Staphylococcus aureus [25] = assay: Antimicrobial activity against methicillin resistant Staphylococcus aureus clinical isolate 1 after 18 to 20 hrs by microbroth dilution method; type: functional
# [26] = Hemolytic activity against human erythrocytes at 50 uM after 40 mins relative to control; type: ADME, cell-based, Erythrocyte; details: read-out: Activity
# [27] = Hemolytic activity against human erythrocytes at 3.125 uM after 40 mins relative to control; type: ADME, cell-based, Erythrocyte; details: read-out: Activity
# [28] = test system: Staphylococcus epidermidis; assay: Antimicrobial activity against Staphylococcus epidermidis ATCC 12228 assessed as membrane-perturbation measured every minute for 120 mins by SYTOX green fluorescence dye influx assay; type: functional, organism-based
# [29] = Hemolytic activity against human erythrocytes at 12.5 uM after 40 mins relative to control; type: ADME, cell-based, Erythrocyte; details: read-out: Activity
# Staphylococcus aureus [30] = assay: Antimicrobial activity against beta-lactamase resistant Staphylococcus aureus after 18 to 20 hrs by microbroth dilution method; type: functional
# [31] = Metabolic stability in 90% human serum assessed as parent compound remaining at 0.2 mM after 45 mins by RP-UHPLC analysis; type: ADME, cell-free; details: read-out: Stability
SMILES,MIC (Escherichia coli [1]),MIC (Candida albicans [2]),MIC (Priestia megaterium),Activity (HaCaT [4]),MIC (Pichia kudriavzevii),MIC (Staphylococcus aureus [5]),Activity (HaCaT [6]),MIC (Acinetobacter baumannii [7]),MIC (Pseudomonas syringae),MIC [8],MIC (Pseudomonas aeruginosa [9]),Activity (HaCaT [10]),MIC (Pseudomonas aeruginosa [11]),MIC (Staphylococcus aureus [12]),MIC (Candida albicans [13]),MIC (Escherichia coli [14]),MIC (Staphylococcus aureus [15]),Activity (Candida albicans [16]),Activity (Acinetobacter baumannii [17]),MIC (Escherichia coli [18]),also measured
CC[C@H](C)[C@H](NC(=O)[C@H](CCCNC(=N)N)NC(=O)[C@@H](Cc1c[nH]c2ccccc12)NC(=O)[C@@H](CC(C)C)NC(=O)[C@H](Cc1ccccc1)NC(=O)[C@H](CCCCN)NC(=O)[C@H](CO)NC(=O)[C@H](Cc1ccccc1)NC(=O)[C@H](Cc1c[nH]c2ccccc12)NC(=O)[C@@H]1CCCN1C(=O)[C@@H](NC(=O)[C@@H](N)Cc1ccccc1)C(C)C)C(=O)N[C@@H](CC(C)C)C(N)=O (H-FVPWFSKF[dL][dW]RIL-NH2),25 µM,3.12 µM,3.12 µM,35.34%,3.12 µM,3.12 µM,19.21%,3.12 µM,3.12 µM,1.56 µM,50 µM,96.77%,,,,,,,,,Activity (HaCaT [3]): 15%
"CC[C@H](C)C(NC(=O)[C@H](CCCNC(=N)N)NC(=O)[C@@H](CCCCN)NC(=O)[C@@H](CC(C)C)NC(=O)[C@H](Cc1ccccc1)NC(=O)[C@H](CCCCN)NC(=O)[C@H](CO)NC(=O)[C@H](Cc1ccccc1)NC(=O)[C@H](Cc1c[nH]c2ccccc12)NC(=O)[C@@H]1CCCN1C(=O)[C@@H](NC(=O)[C@@H](N)Cc1ccccc1)C(C)C)C(=O)N[C@@H](CC(C)C)C(N)=O (single isomer, unassigned)",12.5 µM,1.56 µM,3.12 µM,28.22%,1.56 µM,12.5 µM,0%,6.25 µM,12.5 µM,3.12 µM,12.5 µM,87.9%,> 50 µM,25 µM,12.5 µM,25 µM,12.5 µM,Active,Active,25 µM,"Activity (HaCaT [19]): Non-Toxic; MIC (Staphylococcus aureus [20]): 12.5 µM; MIC (Candida albicans [21]): 12.5 µM; MIC (Klebsiella pneumoniae): 50 µM; remaining at 2 h [22]: 40%; hemolysis at 40 min, 6.25 µM [23]: 1%; hemolysis at 40 min, 25 µM [24]: 5%; MIC (Staphylococcus aureus [25]): 25 µM; hemolysis at 40 min, 50 µM [26]: 7%; hemolysis at 40 min, 3.125 µM [27]: 0%; Activity [28]: Active; hemolysis at 40 min, 12.5 µM [29]: 5%; MIC (Staphylococcus aureus [30]): 25 µM"
CC[C@H](C)[C@H](NC(=O)[C@H](CCCNC(=N)N)NC(=O)[C@H](Cc1c[nH]c2ccccc12)NC(=O)[C@@H](CC(C)C)NC(=O)[C@H](Cc1ccccc1)NC(=O)[C@H](CCCCN)NC(=O)[C@H](CO)NC(=O)[C@H](Cc1ccccc1)NC(=O)[C@H](Cc1c[nH]c2ccccc12)NC(=O)[C@@H]1CCCN1C(=O)[C@@H](NC(=O)[C@@H](N)Cc1ccccc1)C(C)C)C(=O)N[C@@H](CC(C)C)C(N)=O (H-FVPWFSKF[dL]WRIL-NH2),25 µM,3.12 µM,1.56 µM,32.1%,3.12 µM,3.12 µM,0%,3.12 µM,1.56 µM,1.56 µM,> 50 µM,89.3%,> 50 µM,6.25 µM,25 µM,50 µM,6.25 µM,Active,Active,50 µM,"remaining at 0.75 h, 200 µM [31]: 80%; Activity (HaCaT [19]): Non-Toxic; MIC (Staphylococcus aureus [20]): 6.25 µM; MIC (Candida albicans [21]): 25 µM; MIC (Klebsiella pneumoniae): > 50 µM; remaining at 2 h [22]: 50%; hemolysis at 40 min, 6.25 µM [23]: 4%; hemolysis at 40 min, 25 µM [24]: 20%; MIC (Staphylococcus aureus [25]): 6.25 µM; hemolysis at 40 min, 50 µM [26]: 37%; hemolysis at 40 min, 3.125 µM [27]: 2%; Activity [28]: Active; hemolysis at 40 min, 12.5 µM [29]: 7%; MIC (Staphylococcus aureus [30]): 6.25 µM"
